Earlier results, collected in patent publication US20180066081A1, “SUBSTITUTED CYCLIC ETHER POLYMERS AND CONJUGATES AND USES THEREOF” (UNIVERSITY OF IOWA RESEARCH FOUNDATION, priority 2015, published 2018).

Settings: chlorhexidine rinses (e.g., PERIDEX, chlorhexidine gluconate 0.12%); from package insert

For `[H]/N=C(\N/C(=N/[H])NCCCCCCNC(=N)NC(=N)Nc1ccc(Cl)cc1)Nc1ccc(Cl)cc1` [chlorhexidine], the “active compound retained in the oral cavity following application” value is given as “about 30%”.
